Measurements reported in patent publication US20060106102A1, “Napththalene derivatives which inhibit the cytokine or biological activity of microphage migration inhibitory factor (mif)” (priority 2002, published 2006).
Where two headings read alike, the source gives them in different places.

Columns and labels:
[1] = test system: recombinant human macrophage migration inhibitory factor (MIF)-induced proliferation of S112 human dermal fibroblasts; assay: MIF-induced proliferation of S112 human dermal fibroblasts, 3H-thymidine incorporation; format: cell-based
Experimental: The activity of each compound was studied in a bioassay utilising MIF-induced proliferation of human dermal fibroblasts. S112 human dermal fibroblasts were propagated in RPMI/10% foetal calf serum (FCS). Prior to experimentation, cells were seeded at 10^5 cells/ml in RPMI/0.1% BSA for 18 hours. At time point zero, culture medium was replaced with RPMI/10% FCS and treatments administered. Cells were treated with recombinant human macrophage migration inhibitory factor (MIF) 50 ng/ml (1.353×10^−9 M) and/or the compound at a 1 or 1000 molar ratio to the concentration of MIF. In some experiments the compound was combined with MIF at time point −30 minutes, prior to adding at time point zero. At time point 30 hours, cells were pulsed with […]. At time point 48 hours, cells were harvested using a semi-automated cell harvester. The radioactivity incorporated into DNA was determined by liquid scintillation counting, with results expressed as [^3H] thymidine incorporation. The proliferation of untreated cells was expressed as 100% and the effect of MIF and each compound expressed in relative %.
The activity of compound 5 was studied in a bioassay utilising MIF-induced proliferation of human dermal fibroblasts. S112 human dermal fibroblasts were propagated in RPMI/10% foetal calf serum (FCS). Prior to experimentation, cells were seeded at 10^5 cells/ml in RPMII/0.1% BSA for 18 hours. At time point zero, culture medium was replaced with RPMI/10% FCS and treatments administered. Cells were treated with recombinant human macrophage migration inhibitory factor (MIF) 50 ng/ml and/or compound 5 at a 1-1000 molar ratio to the concentration of MIF. At a time point 30 hours later, cells were pulsed with 1 μCi/well of ^3H-thymidine. At a time point 48 hours after commencement of the experiment, cells were harvested using a semi-automated cell harvester. The radioactivity incorporated into DNA was determined by liquid scintillation counting, with results expressed as [^3H] thymidine incorporation.

[2] = test system: antigen-specific T cell activation (splenic T lymphocytes from mBSA-immunised mice); assay: antigen-specific (mBSA) activation of splenic T lymphocytes in vitro, 3H-thymidine incorporation; format: cell-based, C57BL6/J mice; details: for EC50: read-out: EC50 (T cell activation suppressed by 50% compared to vehicle-only-treated cells)
Experimental: After a further seven (7) days mice were killed and spleens collected aseptically into Hanks buffered saline solution (HBSS). A single cell suspension was prepared in Petri dishes by flushing DMEM through the organ using a 26G needle and 2 mL syringe. The resulting cell suspension was centrifuged for 5-7 minutes and supernatant discarded. Erythrocytes were lysed using a solution containing 0.579% NH4Cl, 0.000037% EDTA, and 0.1% NaHCO3 in a 37° C. water bath. Tubes were then filled with DMEM and centrifuged for 5-7 minutes. […] The specific stimulating antigen, mBSA, was then added at 10-50 μg/mL and plates incubated for 30 hours in a 37° C., 5% CO2 incubator. Tritiated^3H-thymidine was then added at a concentration of 0.5 μCi/well for a further 18 hours. Cells were harvested on a Packard cell harvester, and the harvested material added to 750 μL/tube scintillation fluid. Scintillation counts were read on a Wallac beta-emnission counter. […] Further compounds were also tested for their ability to inhibit antigen-specific T cell activation as a marker of the inhibition of the cytokine or biological activity of MIF using this assay.

[3] = test system: rat adjuvant-induced arthritis (AIA) model; assay: rat adjuvant-induced arthritis (AIA) model; format: in vivo, Sprague-Dawley rats; details: 1.0 mg/kg once daily intraperitoneal
Experimental: The activity of each compound was studied in the rat adjuvant-induced arthritis (AIA) model of rheumatoid arthritis. […] Male Sprague-Dawley rats (150±20 g) were used. Adjuvant artritis was induced by intradermal injection at the tail base of […] of a 10 mg/ml suspension of heat-inactivated Mycobacterium tuberculosis (Difco, Detroit, Mich.) in squalane. The compound was administered at a dose of 1.0 mg/kg body weight by once daily intraperitoneal injection on each day (treated). Control animals received an identical volume injection of vehicle (control). Joint inflammation in adjuvant arthritis was assessed clinically as follows: • i) Articular index/score: A score of 0 (no observable erythema or swelling) to 4 (severe swelling and erythema) was given for each paw. All four paws were scored, resulting in a maximum possible score of 16 for each animal (34). • ii) Synovial fluid cell number: Joints were exposed by removal of overlying skin, needle arthrocentesis performed and joint space cells obtained by closed needle lavage with 2 ml saline using a 26 gauge needle and syringe. Lavaged cells from both ankle joints were pooled, washed in saline (300 g for 5 minutes), and counted in a hemocytometer (Improved Nebauer, Weber, UK) (34).

[4] = test system: murine peritoneal macrophage nitric oxide production; assay: murine peritoneal macrophage nitric oxide production (nitrite, Greiss assay); format: cell-based, C57BL6/J mice; details: Mus musculus, LPS 10 ng/ml and interferon-γ 10 units/ml, 24 hours, read-out: % Nitrite concentration inhibition from control
Experimental: C57BL6/J male mice were injected intraperitoneally with 2ml of thioglycollate. Five (5) days later peritoneal macrophages were collected by ravaging the peritoneum of anaesthetized mice with 3 ml of cold Hanks buffered saline solution. Cells from several mice were pooled, washed and re-suspended in DMEM supplemented with 5% FCS. Cells were plated in 96 well plastic tissue culture plates at 1×10^5 cells/well. Cells were treated with compound or vehicle for 1 hour in a 5% CO2 incubator at 37° C. Cells were then treated with LPS (10 ng/ml) and recombinant human interferon-γ (10 units/ml) and incubated for 24 hours. After 24 hours, 50 μl of supernatant from each well was carefully removed and transferred to ELISA plates. The concentration of nitrite in culture supernatants was measured by the Greiss assay (41). The results were defined as the percentage inhibition of nitrite concentration in compound-treated cell culture supernatants compared to that of vehicle-treated cells.

[5] = test system: IL-1-induced COX-2 expression; assay: IL-1-induced COX-2 expression in S112 human dermal fibroblasts (MIF-dependent event), flow cytometry; format: cell-based; details: Homo sapiens, Fibroblast, IL-1 0.1 ng/ml, 6 hours, S112 cells, read-out: % inhibition of IL-1-induced COX2 expression (Effect)
Experimental: The activity of each compound was studied in a bioassay utilising MIF-dependent activation of human dermal fibroblasts. […] IL-1-induced COX-2 expression is therefore a MIF-dependent event. […] Prior to experimentation, cells were seeded at 10^5 cells/ml in RPMI/0.1% BSA for 18 hours. […] Cells permeabilised with 0.1% saponin were sequentially labelled with a mouse anti-human COX-2 monoclonal antibody and with sheep-anti-mouse F(ab)2 fragment labelled with fluoroscein isothiocyanate. Cellular fluorescence was determined using a flow cytometer. At least 5000 events were counted for each reading, each of which was performed in duplicate, and the results expressed in mean fluorescence intensity (MFI) after subtraction of negative control-labelled cell fluorescence. The effect of each compound was determined by subtracting the IL-1+compound-treated cell MFI from the IL-1-treated cell MFI and expressed as % inhibition. In each case the % inhibition of IL-1-induced COX2 expression is shown as the mean, or mean±SEM where results are available from multiple experiments.

[6] = test system: murine endotoxic shock model (LPS); assay: murine endotoxic shock model, serum cytokines by ELISA; format: in vivo; details: mice
Experimental: The activity of 6,7-dihydroxynaphthalene-3-sulfonic acid (compound 6) was studied in the murine endotoxic shock model. This model has been previously shown to be dependent on MIF (35). […] Endotoxaemia was induced by intra-peritoneal injection of lipopolysaccharide (LPS) (15 mg/kg) in 400 μl saline. Mice were treated with a saline solution (control) only, a saline solution and LPS, or LPS and 6,7-dihydroxynaphthalene-2-sulfonic acid (compound 6) at a dose of 15 mg/kg body weight by intra-peritoneal injection at 24 hours, 12 hours and 1 hour before intra-peritoneal LPS injection. After 1.5 or 6 hours mice were humanely killed by CO2 inhalation then neck dislocation. Serum was obtained from blood obtained by cardiac puncture prior to death and measured for cytokines including interleukin 1 (IL-1) and interleukin 6 (IL-6) by ELISA. The production of IL-1 and IL-6 has been previously shown to be dependent on MIF (36).
The effect of compounds was further tested under a variety of conditions in animals exposed to endotoxic shock induced as above by the injection of 15 mg/kg LPS by intraperitoneal injection. In each case, compounds were administered by intraperitoneal injection at a dose of 15 mg/kg. Compound administration was associated with reductions in serum cytokine concentration under a variety of administration regimens.

[7] = test system: murine antigen-induced arthritis; assay: murine antigen-induced arthritis, histological score; format: in vivo, C57BL6/J mice; details: 15 mg/kg i.p. once per 24 hours; histology at day 28; mice
Experimental: Antigen-induced arthritis was induced in mice. C57BL6/J male mice, aged 7-10 weeks old, were immunized on day 0 with 200 μg methylated BSA (mBSA) emulsified in 200 μl of Freund's complete adjuvant (FCA) injected subcutaneously into the flank skin. Mice were treated with compound 5, administered by intraperitoneal injection, once per 24 hours at a dose of 15 mg/kg body weight. After seven days, mice received 100 μg “mBSA and 100 μl FCA by intradermal injection at the base of the tail. After a further 14 days, arthritis was induced by intra-articular injection of 30 μg mBSA in 10 μl of sterile saline into the left knee, the right knee being injected with sterile saline alone.
Arthritis was analysed histologically at day 28 after first immunisation. Knee joints were dissected and fixed in 10% buffered formalin for 7 days. Fixed tissues were decalcified for 3 weeks in 15% ethylene-diamine-tetra-acetic acid (EDTA), dehydrated and embedded in paraffin. Sagittal sections (5 μm) of the knee joint were stained with Safranin-O and counterstained with fast green /iron hematoxylin. Histological sections were scored from 0 to 3 for four parameters: Synovitis was defined as hyper-cellularity of the synovium including pannus formation. Joint space exudate was identified as leukocytes, discretely or in aggregates, in the joint space. […]

[8] = Mus musculus, T-cell, mBSA 10 μg/ml
[9] = Mus musculus, T-cell, mBSA 50 μg/ml

O=C(O)c1ccc2c(S(=O)(=O)O)c(O)ccc2c1 [Compound 5, 2-carboxy-6-hydroxynaphthalene-5-sulfonic acid]
effect on MIF-induced proliferation of human dermal fibroblasts (FIGS. 1 and 2) ([1]; 1M ratio equivalent to MIF 50 ng/ml): inhibition of MIF-induced proliferation | EC50 [2, 8]: 2.39 µM | EC50 [2, 9]: > 100 µM

COc1cc2ccccc2cc1OC [Compound 2, 6,7-dimethoxynaphthalene]
arthritis severity (articular index, synovial fluid cell number; FIGS. 5 and 6) [3]: significant inhibition of arthritis severity | inhibition at 25 µM ([4]; 25 uM): 5.8% | inhibition at 50 µM ([4]; 50 uM): 8.5% | inhibition at 100 µM ([4]; 100 uM): 13.6% | EC50 [2, 8]: 18.1 µM | EC50 [2, 9]: 52 µM | inhibition at 0.1 µM ([5]; compound 0.1 uM): 11.6%

COc1ccc2cc([C@H](C)C(=O)O)ccc2c1 [Compound 8, S-(+)-6-methoxy-α-methyl-2-naphthalene acetic acid]
% inhibition of proliferation compared to vehicle plus rhMIF-treated cells ([1]; concentration 0.013 μM, rhMIF 50 ng/ml, S112 cells): 4% | % inhibition of proliferation compared to vehicle plus rhMIF-treated cells ([1]; concentration 0.13 μM, rhMIF 50 ng/ml, S112 cells): 36% | EC50 ([2]; mBSA 10 μg/ml): 57.7 µM | EC50 ([2]; mBSA 50 μg/ml): > 100 µM

O=S(=O)(O)c1ccc2cc(O)ccc2c1 [Compound 24, 6-Hydroxy-2-naphthalene-sulfonic acid]
Serum IL-6, LPS plus compound ([6]; compound 15 mg/kg i.p. at −24 h, −1 h before LPS 15 mg/kg i.p.): 144 ± 18 ng/mL | inhibition at 0.013 µM ([1]; Homo sapiens, Fibroblast, concentration 0.013 μM, rhMIF 50 ng/ml, S112 cells, read-out: % inhibition of proliferation compared to vehicle plus rhMIF-treated cells): 18% | inhibition at 1 µM ([5]; compound 1 uM): 8.2%

Oc1cc2ccccc2cc1O [Compound 1, 6,7-dihydroxynaphthalene]
inhibition at 0.13 µM ([1]; Homo sapiens, Fibroblast, concentration 0.13 μM, rhMIF 50 ng/ml, S112 cells, read-out: % inhibition of proliferation compared to vehicle plus rhMIF-treated cells): 47%

O=C(O)c1ccc2c([N+](=O)[O-])c(O)ccc2c1 [Compound 23, 6-hydroxy-5-nitro-2-napthoic acid]
individual parameters of arthritis (synovitis, joint space exudate, cartilage degradation, bone damage; FIG. 11b) [7]: Clinically significant reductions in the severity of all individual parameters of arthritis | total arthritis score (FIG. 11a) [7]: clinically significant reduction in total arthritis score | serum IL-1, LPS plus compound ([6]; compound 15 mg/kg i.p. at −16 h before LPS 15 mg/kg i.p.): 58 ± 13 ng/mL | EC50 [2, 8]: > 100 µM | EC50 [2, 9]: > 100 µM | effect on antigen-specific T cell activation (FIG. 10) ([2]; increasing concentrations, mBSA 50 μg/mL): dose-dependent and statistically significant inhibitory effect | inhibition at 10 µM ([5]; compound 10 uM): 8%

CCCCCOS(=O)(=O)c1ccc2cc(O)c(O)cc2c1 [Compound 10, Pentyl 6,7-dihydroxy-2-naphthalenesulfonate]
EC50 [2, 8]: 10 µM | EC50 [2, 9]: 16.7 µM | inhibition at 50 µM ([5]; compound 50 uM): 27.7%
